Data on seven molecules can be found in patent US8822517B2, “Arylosulfonamides for the treatment of CNS diseases” (Adamed SP. Z O.O., priority 2010, dated 2014).

In assay [1] the target is T1, serotonine transporter (SERT) receptor (Homo sapiens, UniProt P31645).
T1 construct: expressed in transfected cells; host or cells: CHO cells
Put plainly: Binding assay SERT (h), [3H]imipramine, CHO cells. The settings on record: read-out: SERT [%]. In short, it runs like this:
(§1)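 Tested at 1×10^−6 M. Specific binding: total minus binding remaining with excess cold ligand. Detection: scintillation counting.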

Assay [2] has as its system sigma σ receptor. Put plainly: Binding assay σ (non-selective), [3H]DTG, rat cerebral cortex. The settings on record: percent inhibition of control specific binding; compounds tested at 1×10^−6 M. In short, it runs like this: as §1
Assay [3] has as its system adrenergic α1 receptor. Put plainly: Binding assay α1 (non-selective), [3H]prazosin, rat cerebral cortex. The settings on record: percent inhibition of control specific binding; compounds tested at 1×10^−6 M. In short, it runs like this: as §1
Assay [4] deals with T2, muscarinic M3 receptor (Homo sapiens, UniProt P20309).
T2 construct: expressed in transfected cells; host or cells: CHO cells
The assay is described as follows: Binding assay M3 (h), [3H]4-DAMP, CHO cells. The settings on record: read-out: M3 [%]. In outline: as §1

For assay [5], the target named is T3, serotoninergic receptor 5-HT2C (Homo sapiens, UniProt P28335).
T3 construct: expressed in transfected cells; host or cells: HEK-293 cells
T3 sequence (P28335 33-458): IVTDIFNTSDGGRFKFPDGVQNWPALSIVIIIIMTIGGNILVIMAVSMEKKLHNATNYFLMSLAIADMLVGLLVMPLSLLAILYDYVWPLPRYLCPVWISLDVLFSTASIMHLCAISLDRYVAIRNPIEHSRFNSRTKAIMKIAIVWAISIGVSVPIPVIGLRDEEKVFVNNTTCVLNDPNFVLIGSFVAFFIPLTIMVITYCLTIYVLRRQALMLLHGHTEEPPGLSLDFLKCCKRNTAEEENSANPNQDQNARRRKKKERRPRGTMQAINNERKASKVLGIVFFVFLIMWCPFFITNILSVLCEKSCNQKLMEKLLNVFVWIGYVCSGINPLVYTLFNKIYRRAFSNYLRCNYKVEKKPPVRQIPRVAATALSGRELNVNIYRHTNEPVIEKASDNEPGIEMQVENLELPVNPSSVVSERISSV
Put plainly: Binding assay 5-HT2C (h), [3H]mesulergine, HEK-293 cells. The settings on record: read-out: 5-HT2C [%]. In short, it runs like this:
as §1

Assay [6] addresses dopaminergic D3 receptor (Homo sapiens, UniProt P35462). Put plainly: Binding assay D3 (h), [3H]methyl-spiperone, CHO cells. Also on record: expressed in transfected cells; host or cells: CHO cells. The settings on record: read-out: D3 [%]. In short, it runs like this:
as §1

The target in assay [7] is serotoninergic 5-HT6 receptor (Homo sapiens, UniProt P50406). The assay is described as follows: Binding assay 5-HT6 (h), [3H]LSD, CHO cells. Also on record: expressed in transfected cells; host or cells: CHO cells. The settings on record: read-out: 5-HT6. In outline: as §1
Assay [8] deals with serotoninergic 5-HT7 receptor (Homo sapiens, UniProt P34969). Put plainly: Binding assay 5-HT7 (h), [3H]LSD, CHO cells. Further details: expressed in transfected cells; host or cells: CHO cells. The settings on record: read-out: 5-HT7. In short, it runs like this: as §1
For assay [9], the target named is T4, adrenergic α2C receptor (Homo sapiens, UniProt P18825).
T4 sequence (P18825 1-462): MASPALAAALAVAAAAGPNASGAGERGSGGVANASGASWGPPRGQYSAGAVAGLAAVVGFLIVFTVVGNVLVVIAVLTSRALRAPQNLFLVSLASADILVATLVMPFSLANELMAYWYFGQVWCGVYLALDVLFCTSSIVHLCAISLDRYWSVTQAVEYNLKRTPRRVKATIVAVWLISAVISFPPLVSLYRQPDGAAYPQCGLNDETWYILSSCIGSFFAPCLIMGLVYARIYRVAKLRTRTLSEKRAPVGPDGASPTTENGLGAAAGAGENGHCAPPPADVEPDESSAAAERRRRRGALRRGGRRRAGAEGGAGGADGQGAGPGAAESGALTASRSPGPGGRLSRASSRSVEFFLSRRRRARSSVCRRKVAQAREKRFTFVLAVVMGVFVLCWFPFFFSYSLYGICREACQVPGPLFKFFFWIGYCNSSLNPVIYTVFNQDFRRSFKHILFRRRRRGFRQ
Put plainly: Binding assay α2C (h), [3H]RX 821002, CHO cells. Further details: expressed in transfected cells; host or cells: CHO cells. The settings on record: read-out: α2C [%]. In outline:
as §1

Assay [10] has as its target dopaminergic D2 receptor (Homo sapiens, UniProt P14416). The assay is described as follows: Binding assay D2S (h), [3H]methyl-spiperone, HEK-293 cells. Also on record: expressed in transfected cells; host or cells: HEK-293 cells. The settings on record: read-out: D2 [%]. In short, it runs like this:
as §1

Assay [11] addresses T5, serotoninergic 5-HT1A receptor (Homo sapiens, UniProt P08908).
T5 sequence (P08908 1-422): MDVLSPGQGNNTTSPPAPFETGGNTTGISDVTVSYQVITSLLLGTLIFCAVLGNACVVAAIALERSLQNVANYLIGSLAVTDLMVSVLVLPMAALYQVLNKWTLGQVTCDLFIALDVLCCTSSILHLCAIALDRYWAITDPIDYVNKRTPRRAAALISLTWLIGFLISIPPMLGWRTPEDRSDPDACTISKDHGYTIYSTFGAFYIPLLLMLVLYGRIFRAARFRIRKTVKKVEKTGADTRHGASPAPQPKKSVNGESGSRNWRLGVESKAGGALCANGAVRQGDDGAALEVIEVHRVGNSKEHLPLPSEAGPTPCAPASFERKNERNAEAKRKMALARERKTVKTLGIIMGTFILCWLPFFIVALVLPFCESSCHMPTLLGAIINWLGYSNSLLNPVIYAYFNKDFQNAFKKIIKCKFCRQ
The assay is described as follows: Binding assay 5-HT1A (h), [3H]8-OH-DPAT, HEK-293 cells. Also on record: expressed in transfected cells; host or cells: HEK-293 cells. The settings on record: read-out: 5-HT1A. In short, it runs like this: as §1

Assay [12] deals with serotoninergic 5-HT2A receptor (Homo sapiens, UniProt P28223). The assay is described as follows: Binding assay 5-HT2A (h), [3H]ketanserin, HEK-293 cells. Further details: expressed in transfected cells; host or cells: HEK-293 cells. The settings on record: read-out: 5-HT2A. In short, it runs like this:
as §1

Assay [13] has as its target histaminergic H1 receptor (Homo sapiens, UniProt P35367). Put plainly: Binding assay H1 (h), [3H]pyrilamine, HEK-293 cells. Further details: expressed in transfected cells; host or cells: HEK-293 cells. The settings on record: read-out: H1 [%]. In outline: as §1

serotoninergic 5-HT2A receptor, sequence (P28223 whole entry): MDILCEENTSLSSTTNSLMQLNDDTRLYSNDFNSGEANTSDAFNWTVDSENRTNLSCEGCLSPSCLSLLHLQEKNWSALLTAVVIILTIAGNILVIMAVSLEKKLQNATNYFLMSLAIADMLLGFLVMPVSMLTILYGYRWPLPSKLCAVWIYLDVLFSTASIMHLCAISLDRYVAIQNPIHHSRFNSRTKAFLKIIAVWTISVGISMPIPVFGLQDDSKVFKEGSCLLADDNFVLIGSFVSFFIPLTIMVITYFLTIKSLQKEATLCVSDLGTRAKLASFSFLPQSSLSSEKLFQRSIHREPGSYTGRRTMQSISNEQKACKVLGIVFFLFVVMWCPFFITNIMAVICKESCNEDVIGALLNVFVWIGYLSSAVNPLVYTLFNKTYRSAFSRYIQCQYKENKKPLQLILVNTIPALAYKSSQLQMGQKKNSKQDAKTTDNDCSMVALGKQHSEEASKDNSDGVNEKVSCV
serotoninergic 5-HT6 receptor, sequence (P50406 whole entry): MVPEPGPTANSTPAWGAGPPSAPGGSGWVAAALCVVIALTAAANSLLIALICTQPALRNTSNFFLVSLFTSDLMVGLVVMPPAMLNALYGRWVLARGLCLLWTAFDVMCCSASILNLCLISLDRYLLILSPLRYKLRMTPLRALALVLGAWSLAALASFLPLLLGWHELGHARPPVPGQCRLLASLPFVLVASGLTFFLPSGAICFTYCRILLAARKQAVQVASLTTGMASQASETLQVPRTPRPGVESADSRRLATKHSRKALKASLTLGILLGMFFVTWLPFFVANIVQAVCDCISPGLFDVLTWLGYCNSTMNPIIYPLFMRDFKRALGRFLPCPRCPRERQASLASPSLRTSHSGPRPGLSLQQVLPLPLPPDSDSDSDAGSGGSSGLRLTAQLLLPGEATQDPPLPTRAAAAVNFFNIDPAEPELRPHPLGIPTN
dopaminergic D2 receptor, sequence (P14416 1-414 isoform P14416-2): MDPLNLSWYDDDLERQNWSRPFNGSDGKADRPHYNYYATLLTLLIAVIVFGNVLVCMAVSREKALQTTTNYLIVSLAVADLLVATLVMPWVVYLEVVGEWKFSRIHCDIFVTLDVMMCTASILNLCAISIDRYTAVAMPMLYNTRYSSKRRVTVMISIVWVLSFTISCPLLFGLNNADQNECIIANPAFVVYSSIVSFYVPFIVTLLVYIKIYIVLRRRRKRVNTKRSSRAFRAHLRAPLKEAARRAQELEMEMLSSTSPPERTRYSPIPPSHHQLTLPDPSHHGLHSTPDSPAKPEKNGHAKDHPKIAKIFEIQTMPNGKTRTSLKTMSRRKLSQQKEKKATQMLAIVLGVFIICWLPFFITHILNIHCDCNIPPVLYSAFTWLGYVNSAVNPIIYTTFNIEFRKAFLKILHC
histaminergic H1 receptor, sequence (P35367 whole entry): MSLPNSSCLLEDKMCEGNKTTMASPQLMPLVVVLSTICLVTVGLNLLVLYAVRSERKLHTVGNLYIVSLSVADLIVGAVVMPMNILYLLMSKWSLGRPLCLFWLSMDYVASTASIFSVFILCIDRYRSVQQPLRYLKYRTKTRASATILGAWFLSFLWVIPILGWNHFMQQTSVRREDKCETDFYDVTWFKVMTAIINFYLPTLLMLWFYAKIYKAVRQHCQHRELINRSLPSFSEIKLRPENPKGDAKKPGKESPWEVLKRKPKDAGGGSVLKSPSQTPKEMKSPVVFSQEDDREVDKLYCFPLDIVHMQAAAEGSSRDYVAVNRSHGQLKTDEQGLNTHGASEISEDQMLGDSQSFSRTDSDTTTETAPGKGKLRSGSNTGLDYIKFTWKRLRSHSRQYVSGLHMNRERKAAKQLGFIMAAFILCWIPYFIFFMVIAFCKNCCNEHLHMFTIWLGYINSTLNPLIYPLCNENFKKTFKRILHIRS
T1 sequence (P31645 whole entry): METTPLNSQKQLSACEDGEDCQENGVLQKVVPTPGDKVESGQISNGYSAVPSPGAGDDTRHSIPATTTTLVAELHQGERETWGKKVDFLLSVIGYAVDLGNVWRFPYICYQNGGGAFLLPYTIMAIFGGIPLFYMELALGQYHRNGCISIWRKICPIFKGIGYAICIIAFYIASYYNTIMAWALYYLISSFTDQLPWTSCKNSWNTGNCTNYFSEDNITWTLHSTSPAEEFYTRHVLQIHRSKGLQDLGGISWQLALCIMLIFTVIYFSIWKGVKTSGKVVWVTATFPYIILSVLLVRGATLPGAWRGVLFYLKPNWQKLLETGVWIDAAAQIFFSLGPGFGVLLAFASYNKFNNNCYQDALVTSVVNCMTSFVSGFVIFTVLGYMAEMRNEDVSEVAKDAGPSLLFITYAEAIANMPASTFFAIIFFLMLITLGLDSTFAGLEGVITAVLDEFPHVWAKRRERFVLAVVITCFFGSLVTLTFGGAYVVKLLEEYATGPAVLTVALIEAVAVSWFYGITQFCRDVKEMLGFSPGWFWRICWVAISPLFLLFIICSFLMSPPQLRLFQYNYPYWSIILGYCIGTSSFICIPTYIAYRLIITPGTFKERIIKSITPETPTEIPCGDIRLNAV
serotoninergic 5-HT7 receptor, sequence (P34969 whole entry): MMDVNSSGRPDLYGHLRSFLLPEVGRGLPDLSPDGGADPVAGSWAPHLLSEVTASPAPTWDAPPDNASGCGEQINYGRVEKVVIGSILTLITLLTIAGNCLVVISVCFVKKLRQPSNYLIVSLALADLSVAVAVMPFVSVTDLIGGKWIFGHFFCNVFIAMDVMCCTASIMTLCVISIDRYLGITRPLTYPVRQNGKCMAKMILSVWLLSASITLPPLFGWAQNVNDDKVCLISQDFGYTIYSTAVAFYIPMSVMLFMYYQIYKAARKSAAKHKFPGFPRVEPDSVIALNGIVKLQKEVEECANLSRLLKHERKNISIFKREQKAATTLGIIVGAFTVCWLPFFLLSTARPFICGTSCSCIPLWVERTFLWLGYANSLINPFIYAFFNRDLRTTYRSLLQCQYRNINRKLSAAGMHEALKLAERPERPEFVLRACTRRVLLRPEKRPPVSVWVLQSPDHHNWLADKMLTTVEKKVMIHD
dopaminergic D3 receptor, sequence (P35462 whole entry): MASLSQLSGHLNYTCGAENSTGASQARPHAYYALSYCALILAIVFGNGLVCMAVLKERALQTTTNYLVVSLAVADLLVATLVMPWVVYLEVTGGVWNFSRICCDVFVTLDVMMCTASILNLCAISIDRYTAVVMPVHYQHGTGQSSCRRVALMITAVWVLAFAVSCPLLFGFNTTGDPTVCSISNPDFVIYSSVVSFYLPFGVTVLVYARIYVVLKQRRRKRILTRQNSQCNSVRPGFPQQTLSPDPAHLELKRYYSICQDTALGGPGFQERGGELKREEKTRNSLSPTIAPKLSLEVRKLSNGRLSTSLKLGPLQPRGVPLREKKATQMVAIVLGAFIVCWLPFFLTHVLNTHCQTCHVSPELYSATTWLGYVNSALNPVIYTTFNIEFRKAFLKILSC
T2 sequence (P20309 whole entry): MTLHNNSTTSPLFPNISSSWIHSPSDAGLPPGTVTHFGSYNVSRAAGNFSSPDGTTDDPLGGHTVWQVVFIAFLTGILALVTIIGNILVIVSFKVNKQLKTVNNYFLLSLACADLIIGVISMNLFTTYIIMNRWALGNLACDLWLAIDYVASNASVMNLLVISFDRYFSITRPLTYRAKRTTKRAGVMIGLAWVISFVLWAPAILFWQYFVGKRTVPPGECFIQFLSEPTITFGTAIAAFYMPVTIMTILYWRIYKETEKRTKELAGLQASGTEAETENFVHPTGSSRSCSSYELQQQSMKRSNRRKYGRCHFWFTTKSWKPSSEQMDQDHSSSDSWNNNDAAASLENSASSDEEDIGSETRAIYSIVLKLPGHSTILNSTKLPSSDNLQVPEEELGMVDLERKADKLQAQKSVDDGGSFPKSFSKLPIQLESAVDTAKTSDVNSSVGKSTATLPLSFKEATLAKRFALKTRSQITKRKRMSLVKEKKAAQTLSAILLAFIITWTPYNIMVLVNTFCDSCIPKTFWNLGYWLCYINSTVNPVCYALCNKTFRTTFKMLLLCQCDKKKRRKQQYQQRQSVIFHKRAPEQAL

As to `O=S(=O)(NCCN1CC=C(c2c[nH]c3ccc(F)cc23)CC1)c1cccc(F)c1` [Compound 439, 3-Fluoro-N-[2-[4-(5-fluoro-1H-indol-3-yl)-3,6-dihydro-2H-pyridin-1-yl]ethyl]benzenesulphonamide], the inhibition at 1 µM in [1] came out at 93%; in assay [4], 16%; in [5], 41%; in assay [6] it was 95%; in assay [7], 92%; in assay [8] it was 78%. Also, the inhibition at 1 µM worked out at 68% in assay [9]; 97% in [10]; 99% in [11]; 83% in assay [12]; 18% in assay [13]. Besides, the “σ [%]” value in assay [2] was found to be 80%. The “α1 [%]” value in assay [3] stood at 27%.
`O=c1[nH]c2cccc(N3CCN(CCCCNS(=O)(=O)c4ccc5ccccc5c4)CC3)c2[nH]1` [Compound 419, N-[4-[4-(2-oxo-1,3-dihydrobenzimidazol-4-yl)piperazin-1-yl]butyl]naphthalene-2-sulphonamide]: the inhibition at 1 µM is -21% in [1]; -8% in assay [4]; 7% in [5]; 97% in assay [6]; 12% in assay [7]; 86% in assay [8]. The inhibition at 1 µM in [9] came to 93%; in [10], 93%; in assay [11], 98%; in [12] it was 52%; in assay [13], 12%. The “σ [%]” value in [2] is recorded as −14%. Moreover, in assay [3], the “α1 [%]” value was 86%.
As to `Cc1[nH]c2ccc(Cl)cc2c1C1=CCN(CCCCNS(=O)(=O)c2ccc(Cl)cc2)CC1` [Compound 58, 4-Chloro-N-{4-[4-(5-chloro-2-methyl-1H-indol-3-yl)-3,6-dihydropyridin-1(2H)-yl]butyl}benzenesulphonamide], the inhibition at 1 µM in assay [1] amounted to 78%; in assay [4] it was 11%; in assay [5] it was 21%; in [6], 100%; in [7] it was 84%; in assay [8], 46%. The inhibition at 1 µM in [9] came to 80%; in [10] it was 97%; in assay [11], 94%; in [12], 51%; in assay [13], 75%. For the same molecule, the “σ [%]” value in assay [2] was 34%. In addition, the “α1 [%]” value in assay [3] is 76%.
Take `O=S(=O)(NCCCCN1CCC(c2noc3cc(F)ccc23)CC1)c1ccc2c(c1)OCCO2` [Compound 321, N-[4-[4-(6-Fluoro-1,2-benzoxazol-3-yl)piperidin-1-yl]butyl]-2,3-dihydro-1,4-benzodioxine-6-sulphonamide]: the inhibition at 1 µM in [1] stood at 61%; in assay [4], 14%; in [5], 65%; in [6] it was 98%; in assay [7], 89%; in assay [8], 100%. Besides, the inhibition at 1 µM was determined as 100% in assay [9]; 98% in assay [10]; 78% in assay [11]; 100% in assay [12]; 95% in [13]. Besides, the “σ [%]” value in assay [2] was 74%. Further, the “α1 [%]” value in assay [3] was found to be 98%.
`O=S(=O)(NCCCN1CCN(c2nsc3ccccc23)CC1)c1ccc2cn[nH]c2c1` [Compound 268, N-[3-[4-(1,2-Benzothiazol-3-yl)piperazin-1-yl]propyl]-1H-indazole-6-sulphonamide]: the inhibition at 1 µM in assay [1] was 86%; in [4], 14%; in [5], 78%; in assay [6], 98%; in assay [7], 93%; in [8], 99%. Besides, the inhibition at 1 µM was 99% in [9]; 98% in assay [10]; 98% in assay [11]; 102% in assay [12]; 95% in assay [13]. In addition, the “σ [%]” value in assay [2] is 30%. The “α1 [%]” value in assay [3] is 90%.
In the case of `O=S(=O)(NCCCN1CCN(c2nsc3ccccc23)CC1)c1ccc(F)c(F)c1` [Compound 249, N-[3-[4-(1,2-Benzothiazol-3-yl)piperazin-1-yl]propyl]-3,4-difluorobenzenesulphonamide], the inhibition at 1 µM in [1] was found to be 77%; in assay [4], 9%; in assay [5] it was 89%; in assay [6] it was 100%; in assay [7], 101%; in assay [8] it was 100%. Besides, the inhibition at 1 µM in assay [9] came out at 98%; in assay [10], 98%; in [11], 100%; in assay [12], 101%; in assay [13] it was 97%. The “σ [%]” value in [2] amounted to 68%. Also, in [3], the “α1 [%]” value is on record as 99%.
For `O=S(=O)(NCCCCN1CCN(c2nsc3ccccc23)CC1)c1cccc(O)c1` [Compound 231, N-[4-[4-(1,2-Benzothiazol-3-yl)piperazin-1-yl]butyl]-3-hydroxybenzenesulphonamide], the inhibition at 1 µM stood at 59% in [1]; 11% in [4]; 87% in assay [5]; 97% in assay [6]; 95% in assay [7]; 99% in assay [8]. For the same molecule, the inhibition at 1 µM was determined as 99% in [9]; 99% in assay [10]; 97% in [11]; 101% in assay [12]; 97% in assay [13]. The “σ [%]” value in [2] is on record as 62%. For the same molecule, the “α1 [%]” value in assay [3] turned out to be 96%.
